Results taken from patent EP3046573B1, “AMYLIN ANALOGUES” (Zealand Pharma A/S, priority 2013, dated 2015).
Numbered stars: 1 amine (or outer) side, 2 acyl side, 3 side chain; on linkers, the order of the positions; unused ones are H or OH. Bridge positions count the residues as written; N and C are the ends. Square brackets hold non-standard residues; d marks the D form. Peptide text beside a SMILES is read from it. * marks the point of attachment. C20 diacid = O=C(O)CCCCCCCCCCCCCCCCCCC(=O)*; γGlu = O=C(O)[C@H](CCC(=O)[*:2])N[*:1]; NMeY = CN[C@@H](Cc1ccc(O)cc1)C(=O)O; NMeI = CC[C@H](C)[C@H](NC)C(=O)O; Sar = CNCC(=O)O

Tests used:
[1] = Solubility assessment (turbidity absorbance at 325 nm); type: physicochemical; settings: stock 2 mg/ml diluted 1:1, ambient temperature (typically 25°C), n=1
How it was run: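 Peptide stock (2 mg/ml) in water acidified to pH 2.5 with HCl was diluted 1:1 into 100 mM acetate (pH 4.0, 5.0), histidine (pH 6.0, 7.0) or phosphate (pH 6.0, 7.0, 7.5) buffer. A280 and A325 were read at about 25°C, n=1. A325 ≤ 0.02 meant solubility ≥ 1 mg/ml.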

[2] = test system: Sprague Dawley (SD) rats; assay: Acute food intake and body weight in normal Sprague Dawley rats; type: in vivo; settings: vehicle-corrected, dose 30 nmol/kg sc, once
Protocol: Sprague Dawley (SD) rats were obtained from Taconic A/S, Denmark. The animals arrived at least 7 days before the study start to allow acclimatization to experimental conditions. From arrival and throughout the study, the rats were housed in groups of 2 (n = 2) in a light-, temperature- and humidity-controlled room (reversed 12/12 h light/dark cycle: lights turned off during day-time and on during night-time; temperature 20-22°C; relative humidity 50-80%). Animals had access ad libitum to food (Altromin™ 1324, Brogaarden A/S, Gentofte, Denmark) and water (domestic quality tap water with citric acid added to pH ∼ 3.6) during the entire study. Stratification of rats was based on body weight (BW) on a cage-by-cage basis; mean BWs per cage were used as the basis for pairing four cages together in a group (n = 8 per group). A vehicle group and positive control group were included in each set of tests. Rats were dosed subcutaneously (sc) once in the morning immediately before turning off the lights, using a body weight-corrected dose of peptide (30 nmol/kg). Dosing volume was 5 ml/kg. Food intake was recorded manually at t = 0 (pre-dose) and at t = 4, 7, 10, 24, 48, 72 and 96 hours after dosing. Body weight was measured daily.
Statistical analyses on body weight were performed using GraphPad™ Prism version 5. The measured parameters were compared using unpaired t tests. Differences were considered statistically significant at p < 0.05. Data are means ± SEM; n =8.

[3] = target: T1, human calcitonin receptor (hCTR2) (Homo sapiens, UniProt P30988); assay: hCTR2 assay: induction of cAMP (AlphaScreen cAMP Assay kit) in COS7 cells expressing hCTR2; type: cell-based
T1 construct: expressed in transfected cells
T1 sequence (P30988 25-474): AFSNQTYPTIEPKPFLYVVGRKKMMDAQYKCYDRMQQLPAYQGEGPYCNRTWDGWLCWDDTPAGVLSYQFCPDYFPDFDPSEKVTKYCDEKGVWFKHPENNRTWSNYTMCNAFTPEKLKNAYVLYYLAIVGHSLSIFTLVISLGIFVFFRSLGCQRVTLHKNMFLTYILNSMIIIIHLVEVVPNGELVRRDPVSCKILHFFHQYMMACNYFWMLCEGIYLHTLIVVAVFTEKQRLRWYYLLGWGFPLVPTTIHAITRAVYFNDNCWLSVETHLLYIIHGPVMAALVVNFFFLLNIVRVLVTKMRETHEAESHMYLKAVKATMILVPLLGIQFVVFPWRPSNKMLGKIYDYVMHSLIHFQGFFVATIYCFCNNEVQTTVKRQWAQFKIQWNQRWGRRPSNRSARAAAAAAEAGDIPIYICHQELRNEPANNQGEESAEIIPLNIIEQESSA
How it was run: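 COS7 stable hCTR2 clone (RAMP-free); peptide dose-response 15 min 37° C in Tyrode pH 7.4 + 100 µM IBMX + 0.1% casein; lysis 10 min RT; AlphaScreen cAMP; 4PL fit.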

[4] = Assessment of physical stability: fibril formation detected with Thioflavin T (ThT), lag-time; type: physicochemical; settings: 1 mg/ml peptide, 40 µM ThT, FND = Fibrillation not detected
Protocol: Solutions containing (i) 1 mg/ml of test peptide, 40 µM ThT and 50 mM phosphate (Ph) buffer (pH 7.0), (ii) 1 mg/ml of test peptide, 40 µM ThT and 50 mM histidine (His) buffer (pH 7.0), and (iii) 1 mg/ml of test peptide, 40 µM ThT and 50 mM acetate (Ac) buffer (pH 4.0), were loaded in a 96-well black fluorescence plate (clear bottom) in triplicate. Data were collected at fixed intervals of 10 min, each preceded by 300 s of automixing (agitation), over a period of 96 hours at 40° C. Physical stability, expressed as lag-time of fibril formation (in hours), was defined as the intersection between two linear regressions representing the initial stable phase and the growth phase.

[5] = Assessment of chemical stability: normalized purity by RP-HPLC after incubation at 40 °C; type: physicochemical; settings: normalized purity (T=0 set to 100), 0.2 mg/ml
Protocol: Samples of each test peptide were dissolved in MilliQ™ water, and the pH of the solution was adjusted to pH 4, pH 7.5 or pH 9, respectively, using either HCI or NaOH. The final peptide concentration was 0.2 mg/ml. Samples were placed in glass vials and incubated at 40 °C. The samples were analyzed by RP-HPLC on a C8 column with gradient elution using an ammonium formate/water eluent system, or on a C18 column with gradient elution using a trifluoroacetic acid/water eluent system. The area-percentage (area-%) of the main peak after incubation time T = t (relative to time T = 0) was determined by UV spectroscopy at 220 nm.
The purity was first determined as follows: Purity(area−%) = (area of main peak/total area of all peaks) × 100. [formula]
The purity was then normalized between time points by setting purity at time 0 (T=0) to 100 for each pH value for a given peptide, as follows: Normalised area−%at time t(T = t) = [area−%(T = t)/area−%(T = 0)] × 100. [formula]
The normalized purity values in Table 2 were determined after 7 days of incubation. Table 2. EC50, chemical stability and fibrillation data for compounds of the invention

## CC[C@H](C)[C@@H](C(=O)N[C@@H](CC(C)C)C(=O)N[C@@H](CO)C(=O)N[C@@H](CO)C(=O)N[C@H](C(=O)N[C@@H](CC(N)=O)C(=O)N[C@H](C(=O)NCC(=O)N[C@@H](CO)C(=O)N[C@@H](CC(N)=O)C(=O)N[C@H](C(=O)N(C)[C@@H](Cc1ccc(O)cc1)C(N)=O)[C@@H](C)O)C(C)C)[C@@H](C)O)N(C)C(=O)[C@H](C)NC(=O)CN(C)C(=O)[C@H](Cc1ccccc1)NC(=O)[C@H](CC(N)=O)NC(=O)[C@H](CC(N)=O)NC(=O)[C@H](CO)NC(=O)[C@H](CO)NC(=O)[C@H](Cc1c[nH]cn1)NC(=O)[C@H](Cc1c[nH]cn1)NC(=O)[C@H](CC(C)C)NC(=O)[C@H](Cc1ccccc1)NC(=O)[C@H](CCC(=O)O)NC(=O)[C@H](C)NC(=O)[C@H](CC(C)C)NC(=O)[C@H](CCCNC(=N)N)NC(=O)[C@H](CCC(N)=O)NC(=O)[C@@H](NC(=O)[C@H](C)NC(=O)[C@@H]1CSSC[C@H](NC(=O)[C@H](CCCNC(=N)N)NC(=O)CC[C@H](NC(=O)CCCCCCCCCCCCCCCCCCC(=O)O)C(=O)O)C(=O)N[C@@H](CC(N)=O)C(=O)N[C@@H]([C@@H](C)O)C(=O)N[C@@H](C)C(=O)N[C@@H]([C@@H](C)O)C(=O)N1)[C@@H](C)O [Compound 61, [19CD]-isoGlu-RC()NTATC()ATQRLAEFLHHSSNNF-Gly(Me)-A-Ile(Me)-LSSTNVGSNT-Tyr(Me)-NH2] ({C20 diacid-γGlu}-RCNTATCATQRLAEFLHHSSNNF[Sar]A[NMeI]LSSTNVGSNT[NMeY]-NH2; disulfide 2-7)
[1]; 100 mM acetate buffer pH 4.0
  Solubility, Acetate buffer pH 4: SS (SS indicates solubility ≥ 1mg/ml)
[1]; 100 mM acetate buffer pH 5.0
  Solubility, Acetate buffer pH 5: SS (SS indicates solubility ≥ 1mg/ml)
[1]; 100 mM histidine buffer pH 6.0
  Solubility, Histidine buffer pH 6: II (II indicates solubility ≤ 1 mg/ml)
[1]; 100 mM histidine buffer pH 7.0
  Solubility, Histidine buffer pH 7: II (II indicates solubility ≤ 1 mg/ml)
[1]; 100 mM phosphate buffer pH 6.0
  Solubility, Phosphate buffer pH 6: II (II indicates solubility ≤ 1 mg/ml)
[1]; 100 mM phosphate buffer pH 7.0
  Solubility, Phosphate buffer pH 7: II (II indicates solubility ≤ 1 mg/ml)
[1]; 100 mM phosphate buffer pH7.5
  Solubility, Phosphate buffer pH 7.5: II (II indicates solubility ≤ 1 mg/ml)
[2]; 48 hours
  Food intake inhibition (%) after 48 hours: 24%
[2]; mean ± SEM, 96 hours, n = 8
  Body weight loss (%) after 96 hours: 1 ± 1.6 %
[3]
  EC50: 0.3 nM
[4]; 50 mM acetate buffer pH 4.0, 96 hours at 40°C
  Fibrillation lag time (hours) pH 4.0 (Ac): FND
[4]; 50 mM histidine buffer pH 7.0, 96 hours at 40°C
  Fibrillation lag time (hours) pH 7.0 (His): 3 hours
[4]; 50 mM phosphate buffer pH 7.0, 96 hours at 40°C
  Fibrillation lag time (hours) pH 7.0 (Ph): 3 hours

## CC[C@H](C)[C@@H](C(=O)N[C@@H](CC(C)C)C(=O)N[C@@H](CO)C(=O)N[C@@H](CO)C(=O)N[C@H](C(=O)N[C@@H](CC(N)=O)C(=O)N[C@H](C(=O)NCC(=O)N[C@@H](CO)C(=O)N[C@@H](CC(N)=O)C(=O)N[C@H](C(=O)N1CCC[C@H]1C(N)=O)[C@@H](C)O)C(C)C)[C@@H](C)O)N(C)C(=O)[C@H](C)NC(=O)CN(C)C(=O)[C@H](Cc1ccccc1)NC(=O)[C@H](CC(N)=O)NC(=O)[C@H](CC(N)=O)NC(=O)[C@@H](CO)NC(=O)[C@H](CO)NC(=O)[C@H](Cc1c[nH]cn1)NC(=O)[C@H](Cc1c[nH]cn1)NC(=O)[C@H](CC(C)C)NC(=O)[C@H](Cc1ccccc1)NC(=O)[C@H](CCC(=O)O)NC(=O)[C@H](C)NC(=O)[C@H](CC(C)C)NC(=O)[C@H](CCCNC(=N)N)NC(=O)[C@H](CCC(N)=O)NC(=O)[C@@H](NC(=O)[C@H](C)NC(=O)[C@@H]1CSSC[C@H](NC(=O)[C@H](CCCNC(=N)N)NC(=O)CC[C@H](NC(=O)CCCCCCCCCCCCCCCCCCC(=O)O)C(=O)O)C(=O)N[C@@H](CC(N)=O)C(=O)N[C@@H]([C@@H](C)O)C(=O)N[C@@H](C)C(=O)N[C@@H]([C@@H](C)O)C(=O)N1)[C@@H](C)O [Compound 31, [19CD]-isoGlu-RC()NTATC()ATQRLAEFLHHS-DSer-NNF-Gly(Me)-A-Ile(Me)-LSSTNVGSNTP-NH2] ({C20 diacid-γGlu}-RCNTATCATQRLAEFLHHS[dS]NNF[Sar]A[NMeI]LSSTNVGSNTP-NH2; disulfide 2-7)
[5]; pH 4, 7 days
  Chem. stability; 7 days, 40°C pH 4: 80 area-%
[5]; pH 7.5, 7 days
  Chem. stability; 7 days, 40°C pH 7.5: 66 area-%
